Consider ten molecules from US11478451B1, “Macrocyclic chlorine substituted indole derivatives” (Bayer Aktiengesellschaft, priority 2017, dated 2022).

The test system of data set [1] is SUDHL5 cells. Description: Induction of caspase-3/7 activity (Caspase-Glo 3/7), SUDHL5. The following applies: EC50, median, SUDHL5, 3 h treatment. The data set is classed as cell-based. The gist of the method:
(§1)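 Steps: seed the diffuse large B-cell lymphoma cells, leaving rim wells unused; add compounds; incubate 3 h at 37 °C; add Caspase-Glo 3/7 reagent; read; subtract medium-only background.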

Data set [2] has as its system SUDHL10 cells. The experiment in a line: Induction of caspase-3/7 activity (Caspase-Glo 3/7), SUDHL10. The format is cell-based. The following applies: EC50, median, SUDHL10, 3 h treatment. The gist of the method:
as §1

The subject of data set [3] is SUDHL5 cells. The experiment in a line: Antiproliferation assay (CellTiter-Glo, 72 h), SUDHL5. The format is cell-based. Particulars: IC50, median, SUDHL5, 72 h, read-out: Antiproli SUDHL5 [M] (median). The gist of the method: (§2)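 Luminescent ATP-based viability (CellTiter-Glo) measured after 72 h of compound treatment at 37 °C. A day 0 plate recorded at time zero served as the starting reference for proliferation.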

A further data set has as its system AMO-1 cells. The experiment in a line: Antiproliferation assay (CellTiter-Glo, 72 h), AMO-1. The format is cell-based. Particulars: IC50, median, AMO-1, 72 h, read-out: Antiproli AMO-1 [M] median. In short, it runs like this: as §2
(In ATP-based viability assays light output follows the ATP content of the culture.)

A further data set relates to HMC-1-8 cells. Description: Antiproliferation assay (CellTiter-Glo, 72 h), HMC-1-8. The data set is classed as cell-based. The following applies: IC50, median, HMC-1-8, 72 h, read-out: Antiproli HMC-1-8 [M] median. The gist of the method:
as §2

For data set [4], the system named is SUDHL5 cells. The experiment in a line: Induction of cytotoxicity (CellTiter-Glo, 5 h), SUDHL5. The following applies: SUDHL5, 5 h.
The subject of data set [5] is SUDHL10 cells. Description: Induction of cytotoxicity (CellTiter-Glo, 5 h), SUDHL10. Particulars: SUDHL10, 5 h.
Where [6] appears, read: Homo sapiens, SU-DHL-5, 5 h, read-out: Cytotox SUDHL5 [M] (median), IC50, median.
[7] abbreviates: Homo sapiens, SU-DHL10, 5 h, read-out: Cytotox SUDHL10 [M] (median), IC50, median.

Each structure is given as a SMILES string. Read-outs that look alike come from different tables or passages of the source.

As a reminder, the EC50 is the concentration needed to bring the measured effect to its halfway point. Low readings indicate an effect from little substance, high ones a need for much substance. Turning to `CCc1c2c(nn1C)CCCN(CCCCOC(C)=O)CCn1c(C(=O)O)c(CCCOc3cccc4cc(F)ccc34)c3ccc(Cl)c-2c31` (racemic) [Example 121, (rac)-12-(4-acetoxybutyl)-4-chloro-3-ethyl-7-{3-[(6-fluoro-1-naphthyl)oxy]propyl}-2-methyl-10,11,12,13,14,15-hexahydro-2H-pyrazolo[3′,4′:8,9][1,4]diazacycloundecino[10,11,1-hi]indole-8-carboxylic acid], the EC50 with SUDHL5 cells [1] (Homo sapiens, SU-DHL-5, 3 h) was 1200 nM; in the data set on SUDHL10 cells [2] (Homo sapiens, SU-DHL10, 3 h), 1700 nM. The IC50 came out at 9e-07 M with SUDHL5 cells [3] (Homo sapiens, SU-DHL-5, 72 h); 1.3e-06 M with AMO-1 cells (Homo sapiens, AMO1, 72 h); 9.9e-06 M with HMC-1-8 cells (72 h); 1.3e-06 M in the data set on SUDHL5 cells [4] (setting [6]); 1.9e-06 M in the data set on SUDHL10 cells [5] (setting [7]).

For `CCc1c2c(nn1C)CCCN(CCCCO)CCn1c(C(=O)O)c(CCCOc3cccc4cc(F)ccc34)c3ccc(Cl)c-2c31` (racemic) [Example 122, (rac)-4-chloro-3-ethyl-7-{3-[(6-fluoro-1-naphthyl)oxy]propyl}-12-(4-hydroxybutyl)-2-methyl-10,11,12,13,14,15-hexahydro-2H-pyrazolo[3′,4′:8,9][1,4]diazacycloundecino[10,11,1-hi]indole-8-carboxylic acid], the 50% effective concentration (EC50) stood at 920 nM with SUDHL5 cells [1] (Homo sapiens, SU-DHL-5, 3 h) and 750 nM in the data set on SUDHL10 cells [2] (Homo sapiens, SU-DHL10, 3 h). For the same molecule, the IC50 is 6.8e-07 M with SUDHL5 cells [3] (Homo sapiens, SU-DHL-5, 72 h); 5.1e-07 M with AMO-1 cells (Homo sapiens, AMO1, 72 h); 6.6e-06 M in the data set with HMC-1-8 cells (72 h); 1.1e-06 M in the data set with SUDHL5 cells [4] (setting [6]); 1.1e-06 M in the data set on SUDHL10 cells [5] (setting [7]).

As to `CCc1c2c(nn1C)CCCN(CC(F)(F)C(F)F)CCn1c(C(=O)O)c(CCCOc3cccc4cc(F)ccc34)c3ccc(Cl)c-2c31` (racemic) [Example 123, (rac)-4-chloro-3-ethyl-7-{3-[(6-fluoro-1-naphthyl)oxy]propyl}-2-methyl-12-(2,2,3,3-tetrafluoropropyl)-10,11,12,13,14,15-hexahydro-2H-pyrazolo[3′,4′:8,9][1,4]diazacycloundecino[10,11,1-hi]indole-8-carboxylic acid], the EC50 in the data set on SUDHL5 cells [1] (Homo sapiens, SU-DHL-5, 3 h) came to 470 nM; in the data set on SUDHL10 cells [2] (Homo sapiens, SU-DHL10, 3 h) it was 1100 nM. Also, the IC50 was determined as 2.2e-06 M with SUDHL5 cells [3] (Homo sapiens, SU-DHL-5, 72 h); 7.7e-07 M with AMO-1 cells (Homo sapiens, AMO1, 72 h); 3.1e-06 M in the data set on HMC-1-8 cells (72 h); 6.6e-07 M with SUDHL5 cells [4] (setting [6]); 1.2e-06 M in the data set with SUDHL10 cells [5] (setting [7]).

`CCc1c2c(nn1C)CN(C)CC(F)(F)CCn1c(C(=O)O)c(CCCOc3cccc4cc(F)ccc34)c3ccc(Cl)c-2c31` (racemic) [Example 126, (rac)-4-Chloro-3-ethyl-12,12-difluoro-7-{3-[(6-fluoro-1-naphthyl)oxy]propyl}-2,14-dimethyl-10,11,12,13,14,15-hexahydro-2H-pyrazolo[3′,4′:8,9][1,6]diazacycloundecino[10,11,1-hi]indol-14-ium-8-carboxylate]: the EC50 amounted to 420 nM in the data set with SUDHL5 cells [1] (Homo sapiens, SU-DHL-5, 3 h) and 720 nM with SUDHL10 cells [2] (Homo sapiens, SU-DHL10, 3 h). Besides, the IC50 with SUDHL5 cells [3] (Homo sapiens, SU-DHL-5, 72 h) was 8.8e-07 M; in the data set with AMO-1 cells (Homo sapiens, AMO1, 72 h) it was 3.7e-07 M; in the data set on HMC-1-8 cells (72 h), 2.2e-06 M; in the data set with SUDHL5 cells [4] (setting [6]), 5e-07 M; with SUDHL10 cells [5] (setting [7]), 8.7e-07 M.

`CCc1c2c(nn1C)CN(C)CCC(F)(F)Cn1c(C(=O)O)c(CCCOc3cccc4cc(F)ccc34)c3ccc(Cl)c-2c31` (racemic) [Example 129, (rac)-4-chloro-3-ethyl-11,11-difluoro-7-{3-[(6-fluoronaphthalen-1-yl)oxy]propyl}-2,14-dimethyl-10,11,12,13,14,15-hexahydro-2H-pyrazolo[3′,4′:8,9][1,6]diazacycloundecino[10,11,1-hi]indole-8-carboxylic acid]: the EC50 turned out to be 300 nM in the data set with SUDHL5 cells [1] (Homo sapiens, SU-DHL-5, 3 h) and 740 nM in the data set with SUDHL10 cells [2] (Homo sapiens, SU-DHL10, 3 h). The IC50 in the data set on SUDHL5 cells [3] (Homo sapiens, SU-DHL-5, 72 h) turned out to be 4.5e-07 M; in the data set on AMO-1 cells (Homo sapiens, AMO1, 72 h), 8.3e-07 M; in the data set on HMC-1-8 cells (72 h), 5.2e-06 M; in the data set with SUDHL5 cells [4] (setting [6]) it was 3.3e-07 M; with SUDHL10 cells [5] (setting [7]), 8.9e-07 M.

Take `Cc1c2c(nn1C)COCC1CC1Cn1c(C(=O)O)c(CCCOc3cccc4ccccc34)c3ccc(Cl)c-2c31` (single isomer, unassigned) [Example 83, 3-chloro-4,5-dimethyl-14-{3-[(naphthalen-1-yl)oxy]propyl}-5,7,9a,10,10a,11-hexahydro-9H-cyclopropa[3,4]pyrazolo[4′,3′:9,10][1,6]oxazacycloundecino[8,7,6-hi]indole-13-carboxylic acid]: the values for the EC50 in the data set on SUDHL5 cells [1] (listed as 083) and in the data set with SUDHL10 cells [2] (listed as 083) were 220 nM and 410 nM, respectively. The IC50 is 5.2e-07 M with SUDHL5 cells [3] (listed as 083); 3.8e-07 M in the data set on AMO-1 cells (listed as 083); 7.4e-06 M in the data set on HMC-1-8 cells (72 h); 5.8e-07 M in the data set on SUDHL5 cells [4] (read-out: Cytotox SUDHL5 [M] (median), IC50, median, listed as 083); 5.9e-07 M with SUDHL10 cells [5] (read-out: Cytotox SUDHL10 [M] (median), IC50, median, listed as 083).

For `CCc1c2c(nn1C)COCC(F)(F)CCn1c(C(=O)O)c(CCCOc3cccc4cc(F)ccc34)c3ccc(Cl)c-2c31` (single isomer, unassigned) [Example 85, (−)-4-chloro-3-ethyl-12,12-difluoro-7-{3-[(6-fluoronaphthalen-1-yl)oxy]propyl}-2-methyl-2,10,11,12,13,15-hexahydropyrazolo[4′,3′:9,10][1,6]oxazacycloundecino[8,7,6-hi]indole-8-carboxylic acid], the EC50 in the data set on SUDHL5 cells [1] (listed as 085) was 180 nM; in the data set on SUDHL10 cells [2] (Homo sapiens, SU-DHL10, 3 h) it was 320 nM. For the same molecule, the IC50 with SUDHL5 cells [3] (listed as 085) was found to be 3.6e-07 M; with AMO-1 cells (listed as 085), 4.9e-07 M; with HMC-1-8 cells (72 h) it was 3.3e-06 M; with SUDHL5 cells [4] (read-out: Cytotox SUDHL5 [M] (median), IC50, median, listed as 085), 3e-07 M; in the data set on SUDHL10 cells [5] (setting [7]) it was 9.8e-07 M.

Turning to `Cc1c2c(nn1C)COCC(F)(F)CCn1c(C(=O)O)c(CCCOc3cccc4cc(F)ccc34)c3ccc(Cl)c-2c31` (single isomer, unassigned) [Example 92, 4-chloro-12,12-difluoro-7-{3-[(6-fluoronaphthalen-1-yl)oxy]propyl}-2,3-dimethyl-2,10,11,12,13,15-hexahydropyrazolo[4′,3′:9,10][1,6]oxazacycloundecino[8,7,6-hi]indole-8-carboxylic acid], the EC50 is 280 nM in the data set with SUDHL5 cells [1] (Homo sapiens, SU-DHL-5, 3 h) and 590 nM in the data set with SUDHL10 cells [2] (Homo sapiens, SU-DHL10, 3 h). The IC50 in the data set with SUDHL5 cells [3] (Homo sapiens, SU-DHL-5, 72 h) was determined as 8.2e-07 M; in the data set on AMO-1 cells (Homo sapiens, AMO1, 72 h), 5.4e-07 M; in the data set with HMC-1-8 cells (72 h) it was 6.8e-06 M; in the data set with SUDHL5 cells [4] (setting [6]), 3.4e-07 M; in the data set with SUDHL10 cells [5] (setting [7]), 8.1e-07 M.

Regarding `CCc1c2c(nn1C)COCCC(F)(F)Cn1c(C(=O)O)c(CCCOc3cccc4cc(F)ccc34)c3ccc(Cl)c-2c31` (single isomer, unassigned) [Example 97, (−)-4-chloro-3-ethyl-11,11-difluoro-7-{3-[(6-fluoronaphthalen-1-yl)oxy]propyl}-2-methyl-2,10,11,12,13,15-hexahydropyrazolo[4′,3′:9,10][1,6]oxazacycloundecino[8,7,6-hi]indole-8-carboxylic acid], the EC50 amounted to 320 nM in the data set with SUDHL5 cells [1] (listed as 097) and 450 nM in the data set with SUDHL10 cells [2] (listed as 097). Further, the IC50 came to 5.5e-07 M with SUDHL5 cells [3] (listed as 097); 2.2e-07 M with AMO-1 cells (listed as 097); 2.2e-06 M in the data set on HMC-1-8 cells (listed as 097); 4.4e-07 M with SUDHL5 cells [4] (read-out: Cytotox SUDHL5 [M] (median), IC50, median, listed as 097); 4.2e-07 M in the data set with SUDHL10 cells [5] (read-out: Cytotox SUDHL10 [M] (median), IC50, median, listed as 097).

Take `CCc1c2c(nn1C)COCCC(F)(F)Cn1c(C(=O)O)c(CCCOc3cccc4cc(F)ccc34)c3ccc(Cl)c-2c31` (single isomer, unassigned) [Example 98, (+)-4-chloro-3-ethyl-11,11-difluoro-7-{3-[(6-fluoronaphthalen-1-yl)oxy]propyl}-2-methyl-2,10,11,12,13,15-hexahydropyrazolo[4′,3′:9,10][1,6]oxazacycloundecino[8,7,6-hi]indole-8-carboxylic acid]: the EC50 turned out to be 6200 nM in the data set with SUDHL5 cells [1] (listed as 098) and 5000 nM in the data set with SUDHL10 cells [2] (listed as 098). In addition, the IC50 in the data set with SUDHL5 cells [3] (listed as 098) was 2.2e-06 M; in the data set with AMO-1 cells (listed as 098), 6.9e-06 M; in the data set with HMC-1-8 cells (listed as 098), 5.9e-06 M; with SUDHL5 cells [4] (read-out: Cytotox SUDHL5 [M] (median), IC50, median, listed as 098) it was 7.3e-06 M; in the data set with SUDHL10 cells [5] (read-out: Cytotox SUDHL10 [M] (median), IC50, median, listed as 098) it was 6.3e-06 M.
